Assays:
[1] = system: B16-F0 cells; assay: Tumour development / liver metastases, organ weight and histology on day 21; assay type: in vivo, C57BL/6 male mice; conditions: Table 12 C57BL/6 male
Protocol: (§1) A number of studies have been completed where mice were treated on day 7 (post-tumour induction) with different cisplatin formulations by inhalation and the effect on subsequent tumour burdens, based on organ weight or direct assessment of the number and size distribution of tumours, was assessed 14 days later. The lungs, liver and spleen were cut into longitudinal slices and the kidney bisected and placed in a tissue cassette. After routine processing in paraffin wax, […] sections were mounted on a glass slide, dewaxed in 100% xylene and serially rehydrated in graded ethanol to water. Sections were then stained with haematoxylin and eosin and examined by light microscopy. For each organ the number and size of tiny (unmeasurable), small, medium and large tumours was determined counted in one H&E section. The size of the largest tumour deposit was also noted. The dimensions used to characterise tumours was small (0.5 to 1.4 mm), medium (1.5 to 2.9 mm), or large (>3 mm largest dimension). The percentage of tiny tumours was calculated using the total number of tumours present in the section.

[2] = system: Leishmania donovani; assay: In vivo efficacy study using Leishmania donovani; set-up: species or system BALB/c mice; conditions: iv 0.2 ml (0.5 mg/ml cisplatin) on day 7 post-infection; burdens seven days later
Protocol: BALB/c mice were infected by intravenous injection (tail vein, no anaesthetic) with 1-2×10^7 L. donovani amastigotes (Carter et al., 1988). The day of parasite administration to the mice was designated day 0 of the experiment. On day 7 post-infection mice were treated by intravenous injection with 0.2 ml of the appropriate formulation by intravenous injection, without anaesthetic (n=4/treatment). On day 14 impression smears of the spleen and liver, and a smear of bone marrow, were made on to an individual glass microscope slide for each mouse at sacrifice. The slides were fixed in methanol for 30 secs, stained in 10% aqueous Giemsa stain (BDH, VWR International Ltd., Poole, UK) for 20 minutes, and then allowed to air dry. The number of parasites present/1000 host nuclei for the spleen, liver and bone marrow for each sample was determined at ×1000 magnification. The LDU was calculated by multiplying the number of parasites present/1000 host nuclei by the organ weight (gms) for the spleen and liver.

[3] = room temperature; cited from earlier work
[4] = system: B16 F0 cells; assay: In vivo lung cancer efficacy study, organ weights; conditions: Table 8; BALB/c female mice; inhalation day 7; Free drug (1 mg/ml), Processed cisplatin-NIV (0.5 mg/ml); sacrificed day 23
[5] = system: B16 F0 cells; assay: In vivo lung cancer efficacy study, organ weights; set-up: species or system BALB/c mice; conditions: sacrificed day 14; for Lung weight: Table 9
Protocol: BALB/c mice (n=8/treatment) were injected intravenously on day 0 with 1-5×10^5 B16 F0 cells which form metastatic lung and liver tumours in mice (Nakurmura et al., 2002). On day 7 mice were treated either by intravenous injection of 0.2 ml of the appropriate drug formulation or PBS pH 7.4/saline (controls) or by inhalation with the appropriate drug formulation or saline using the Buxco® nebulisation system. 0.5 ml of the appropriate formulation or saline was added to the nebuliser which was attached to a Volumatic™ Spacer (Allen and Hanbury, Uxbridge, Middlesex). After 1.5 mins of nebulisation the nebuliser was switched off and the mice were exposed to the resulting aerosol for a further 5 minutes. Mice were sacrificed on day 14, body weight and the weight of the spleen, liver, lungs and kidney assessed. Lung weight was taken as an indirect measure of tumour burden. In some cases mice were dosed on days 4, 7, 9 and 11. Tumours were easily visible as black areas on the surface of the lungs and liver.

[6] = Cisplatin levels in samples from mice treated by inhalation or intravenous injection (HPLC); assay type: in vivo, BALB/c mice; conditions: for Mean cisplatin concentration, Kidney / Mean cisplatin concentration, Liver / Mean cisplatin concentration, Lung lavages / Mean cisplatin concentration, Lungs / Mean cisplatin concentration, Serum / Mean cisplatin concentration, Spleen: 5 minutes after dosing
Protocol: Mice were treated with the appropriate drug formulation either by intravenous injection of 0.2 ml of the appropriate drug formulation or PBS pH 7.4/saline (controls) or by inhalation with the appropriate drug formulation or saline (controls) using the Buxco® nebulisation system. 0.5 ml of the appropriate formulation or saline was added to the nebuliser which was attached to a Volumatic™ Spacer (Allen and Hanbury, Uxbridge, Middlesex). After 1.5 mins of nebulisation, the nebuliser was switched off, and the mice were exposed to the resulting aerosol for a further 5 minutes. […] Blood was taken by cardiac puncture and allowed to clot by storing for up to 12 hours at 4° C. Serum was separated from clotted blood sample by centrifuging at 13,000 rpm at 4° C., and transferred to a clean eppendorf tube. The lungs of the mouse were inflated by introducing two samples of 0.8 ml PBS pH 7.4 via the trachea and the resulting lung lavages were transferred to a clean eppendorf tube. Various organs were removed from the mouse and stored in 1.5 ml microfuge tubes. All the samples were stored at −20° C. until cisplatin levels within the samples could be determined using an HPLC assay.

[7] = system: B16-F0 cells; assay: Tumour development / liver metastases, organ weight and histology on day 21; assay type: in vivo, BALB/c male mice
Protocol: as §1

[8] = after intravenous administration; cited from earlier work
[9] = inhalation day 7, cisplatin solution 1 mg/ml, cisplatin-NIV 0.5 mg/ml
[10] = solution 1 mg/ml, NIV 0.5 mg/ml
[11] = Table 5, 0.5 mg/ml inhalation 6.5 mins on day 7
[12] = Table 5, 4.44 mg/kg iv (0.2 ml of 0.5 mg/ml) on day 7
[13] = Table 6 Expt 1, inhalation on days 4, 7, 9 and 11, cisplatin solution 0.5 mg/ml, processed cisplatin-NIV as prepared
[14] = Table 6 Expt 2, inhalation day 7 only, 0.1 mg/ml
[15] = Table 3, inhalation 6.5 minutes, 0.5 ml of 0.5 mg/ml
[16] = Table 4, inhalation 6.5 minutes, 0.5 ml of 0.5 mg/ml
[17] = Table 10, inhalation day 7, cisplatin solution 1 mg/ml, cisplatin-NIV 0.5 mg/ml
[18] = Table 11, inhalation day 7, cisplatin solution 1 mg/ml, cisplatin-NIV 0.1 mg/ml
[19] = Table 11, solution 1 mg/ml, NIV 0.1 mg/ml
[20] = Table 11, solution 1 mg/ml, NIV 0.1 mg/ml, large >3 mm
[21] = Table 11, solution 1 mg/ml, NIV 0.1 mg/ml, medium 1.5 to 2.9 mm
[22] = Table 11, solution 1 mg/ml, NIV 0.1 mg/ml, small 0.5 to 1.4 mm
[23] = Table 12 BALB/c male, inhalation day 7, cisplatin solution 1 mg/ml, cisplatin-NIV 0.5 mg/ml
[24] = Table 12 BALB/c male, solution 1 mg/ml, NIV 0.5 mg/ml

- Detection of cisplatin by conventional HPLC analysis ([6]; 15 minutes after dosing): not possible to detect
- Mean cisplatin concentration, Kidney [6, 15]: 6.81 ± 2.53 μg/ml/g tissue
- Mean cisplatin concentration, Liver [6, 15]: 0.037 ± 0.04 μg/ml/g tissue
- Mean cisplatin concentration, Lung lavages [6, 15]: 0.004 ± 0.002 µg/mL
- Mean cisplatin concentration, Lungs [6, 15]: 0 ± 0 μg/ml/g tissue
- Mean cisplatin concentration, Serum [6, 15]: 0.268 ± 0.1 µg/mL
- Mean cisplatin concentration, Spleen [6, 15]: 0.018 ± 0.01 μg/ml/g tissue
- Mean cisplatin concentration, Kidney ([6]; Table 3, iv 0.2 ml, 0.5 mg/ml): 0.951 ± 0.35 μg/ml/g tissue
- Mean cisplatin concentration, Liver ([6]; Table 3, iv 0.2 ml, 0.5 mg/ml): 0.19 ± 0.13 μg/ml/g tissue
- Mean cisplatin concentration, Lung lavages ([6]; Table 3, iv 0.2 ml, 0.5 mg/ml): 0.13 ± 0.07 µg/mL
- Mean cisplatin concentration, Lungs ([6]; Table 3, iv 0.2 ml, 0.5 mg/ml): 0 ± 0 μg/ml/g tissue
- Mean cisplatin concentration, Serum ([6]; Table 3, iv 0.2 ml, 0.5 mg/ml): 0.296 ± 0.13 µg/mL
- Mean cisplatin concentration, Spleen ([6]; Table 3, iv 0.2 ml, 0.5 mg/ml): 0.065 ± 0.02 μg/ml/g tissue
- Mean cisplatin concentration, Kidney [6, 16]: 0.55 ± 0.48 μg/ml/g tissue
- Mean cisplatin concentration, Liver [6, 16]: 0.032 ± 0.02 μg/ml/g tissue
- Mean cisplatin concentration, Lung lavages [6, 16]: 0.095 ± 0.06 µg/mL
- Mean cisplatin concentration, Lungs [6, 16]: 0.032 ± 0.15 μg/ml/g tissue
- Mean cisplatin concentration, Serum [6, 16]: 0 ± 0 µg/mL
- Mean cisplatin concentration, Spleen [6, 16]: 0.346 ± 0.19 μg/ml/g tissue
- Mean cisplatin concentration, Kidney ([6]; Table 4, iv 0.2 ml, 0.5 mg/ml): 0.55 ± 0.48 μg/ml/g tissue
- Mean cisplatin concentration, Liver ([6]; Table 4, iv 0.2 ml, 0.5 mg/ml): 0.032 ± 0.02 μg/ml/g tissue
- Mean cisplatin concentration, Lung lavages ([6]; Table 4, iv 0.2 ml, 0.5 mg/ml): 0.095 ± 0.06 µg/mL
- Mean cisplatin concentration, Lungs ([6]; Table 4, iv 0.2 ml, 0.5 mg/ml): 0.032 ± 0.015 μg/ml/g tissue
- Mean cisplatin concentration, Serum ([6]; Table 4, iv 0.2 ml, 0.5 mg/ml): 0.207 ± 0.02 µg/mL
- Mean cisplatin concentration, Spleen ([6]; Table 4, iv 0.2 ml, 0.5 mg/ml): 0.346 ± 0.10 μg/ml/g tissue
Structure (SMILES): [NH2][Pt]([NH2])([Cl])[Cl] [Cisplatin solution, cisplatin]
- Liver Weight [1, 9]: 1.76 ± 0.16
- Lungs Weight [1, 9]: 0.25 ± 0.03
- Liver Tumours, D largest tumour mass, breadth [1, 10]: 4.44 ± 0.56
- Liver Tumours, D largest tumour mass, length [1, 10]: D 5.64 ± 0.88 ×
- Liver Tumours, number large (L) [1, 10]: L 6.4 ± 2.95
- Liver Tumours, number medium (M) [1, 10]: M 2.8 ± 1.01
- Liver Tumours, number small (S) [1, 10]: S 0.20 ± 0.20
- Lungs Tumours, D largest tumour mass, breadth [1, 10]: 0.7 ± 0.20
- Lungs Tumours, D largest tumour mass, length [1, 10]: D 1.35 ± 0.35 ×
- Lungs Tumours, number large (L) [1, 10]: L 0
- Lungs Tumours, number medium (M) [1, 10]: M 1.0 ± 0.6
- Lungs Tumours, number small (S) [1, 10]: S 1.2 ± 0.73
- Lungs Tumours, percentage of tiny tumours [1, 10]: Tiny 0%
- Mean number of parasites ± SE (L. donovani liver parasite burdens) [2]: 2142 ± 249
- Maximum aqueous solubility [3]: approximately 1 mg/ml
- Lung weight [4]: 0.33 ± 0.02
- Mean organ weight, Liver [5, 11]: 1.47 ± 0.05 g
- Mean organ weight, Lungs [5, 11]: 0.22 ± 0.01 g
- Mean organ weight, Liver [5, 12]: 1.44 ± 0.16 g
- Mean organ weight, Lungs [5, 12]: 0.42 ± 0.03 g
- Mean organ weight, Liver [5, 13]: 1.19 ± 0.07 g
- Mean organ weight, Lungs [5, 13]: 0.21 ± 0.01 g
- Mean organ weight, Liver [5, 14]: 1.30 ± 0.03 g
- Mean organ weight, Lungs [5, 14]: 0.21 ± 0.01 g
- Lung weight ([5]; Female mice, inhalation day 7, 1 mg/ml): 0.19 ± 0.01
- Lung weight ([5]; Male mice, inhalation day 7, 0.5 mg/ml): 0.23 ± 0.02
- % animals with visible metastases, Liver [7, 17]: (100%)
- % animals with visible metastases, Lung [7, 17]: (100%)
- Mean weight, Liver [7, 17]: 1.53 ± 0.03 g
- Mean weight, Lung [7, 17]: 0.20 ± 0.01 g
- Liver Weight [7, 18]: 1.65 ± 0.10
- Lungs Histology, percentage of tiny tumours [7, 18]: Tiny 60%
- Lungs Weight [7, 18]: 0.22 ± 0.01
- Liver Histology, D largest tumour mass, breadth [7, 19]: 1.6 ± 0.43
- Liver Histology, D largest tumour mass, length [7, 19]: D 2.38
- Lungs Histology, D largest tumour mass, breadth [7, 19]: 1.19 ± 0.23
- Lungs Histology, D largest tumour mass, length [7, 19]: D 1.4 ± 0.37 ×
- Liver Histology, number of large tumours (L) [7, 20]: L 3.8 ± 2.15
- Lungs Histology, number of large tumours (L) [7, 20]: L 0.40 ± 0.24
- Liver Histology, number of medium tumours (M) [7, 21]: M 2.2 ± 1.56
- Lungs Histology, number of medium tumours (M) [7, 21]: M 1.0 ± 0.6
- Liver Histology, number of small tumours (S) [7, 22]: S 0.4 ± 0.24
- Lungs Histology, number of small tumours (S) [7, 22]: S 2.5 ± 0.43
- Liver Weight [7, 23]: 1.74 ± 0.05
- Lungs Weight [7, 23]: 0.22 ± 0.02
- Liver Tumours, D largest tumour mass, breadth [7, 24]: 2.3 ± 0.70
- Liver Tumours, D largest tumour mass, length [7, 24]: D 2.63 ± 0.71 ×
- Liver Tumours, number large (L) [7, 24]: L 2.5 ± 1.50
- Liver Tumours, number medium (M) [7, 24]: M 2.0 ± 1.41
- Liver Tumours, number small (S) [7, 24]: S 3.5 ± 1.32
- Liver Tumours, percentage of tiny tumours [7, 24]: Tiny 0%
- Lungs Tumours, D largest tumour mass, breadth [7, 24]: 1.08 ± 0.15
- Lungs Tumours, D largest tumour mass, length [7, 24]: D 1.45 ± 0.13 ×
- Lungs Tumours, number large (L) [7, 24]: L 0
- Lungs Tumours, number medium (M) [7, 24]: M 0.5 ± 0.29
- Lungs Tumours, number small (S) [7, 24]: S 7.75 ± 1.11
- Lungs Tumours, percentage of tiny tumours [7, 24]: Tiny 60%
- Share of the dose that reaches the lungs [8]: 0.1%
